The values below are quoted from earlier work in US6696084B2 (RTP Pharma Inc., priority 2000, dated 2004).

Molecules are shown by their SMILES.

For data set [1] the following is noted: oral administration with or without food.

Regarding `CC[C@H](C)C(=O)O[C@H]1C[C@H](O)C=C2C=C[C@H](C)[C@H](CC[C@@H](O)C[C@@H](O)CC(=O)O)[C@H]21` [Pravastatin], the solubility in acetone entry is “practically insoluble” and the solubility in acetonitrile result is “practically insoluble”. Also, the solubility in chloroform entry (chloroform) is “practically insoluble”. The solubility in ether entry (ether) is “practically insoluble”. The solubility in isopropanol result (isopropanol) was “slightly soluble”.
Regarding `COCc1c(C(C)C)nc(C(C)C)c(/C=C/[C@@H](O)C[C@@H](O)CC(=O)O)c1-c1ccc(F)cc1` [Cerivastatin], the solubility in acetone result was “very slightly soluble”, the solubility in ethanol result is “soluble”, the solubility in methanol entry is on record as “soluble” and the solubility in water result was “soluble”. Moreover, the “food effect on absorption / uptake” value in data set [1] was “not sensitive to a food effect”.
As for `CC(C)n1c(/C=C/C(O)CC(O)CC(=O)O)c(-c2ccc(F)cc2)c2ccccc21` (stereo not drawn) [Fluvastatin], the solubility in ethanol entry is listed as “soluble”, the solubility in methanol entry is listed as “soluble” and the solubility in water result is reported as “soluble”. In data set [1], the “food effect on absorption / uptake” value is listed as “reduces the rate but not the extent of absorption”.
As for `CC[C@H](C)C(=O)O[C@H]1C[C@@H](C)C=C2C=C[C@H](C)[C@H](CC[C@@H]3C[C@@H](O)CC(=O)O3)[C@H]21` [Lovastatin], the solubility in acetonitrile result is listed as “sparingly soluble”, the solubility in ethanol entry is listed as “sparingly soluble”, the solubility in methanol result is “sparingly soluble” and the solubility in water entry is “insoluble”.
